“Also recorded” adds a separate entry of the source.
How the values were obtained:
REV-ERBα = target: T1, REV-ERBα (Homo sapiens, UniProt P20393); assay: Dual-luciferase Bmal-luc reporter assay in HEK293T cells transfected with REV-ERBα; assay type: cell-based; settings: 10 μM
T1 construct: expressed in transfected cells; host or cells: HEK293T
T1 sequence (P20393 1-614): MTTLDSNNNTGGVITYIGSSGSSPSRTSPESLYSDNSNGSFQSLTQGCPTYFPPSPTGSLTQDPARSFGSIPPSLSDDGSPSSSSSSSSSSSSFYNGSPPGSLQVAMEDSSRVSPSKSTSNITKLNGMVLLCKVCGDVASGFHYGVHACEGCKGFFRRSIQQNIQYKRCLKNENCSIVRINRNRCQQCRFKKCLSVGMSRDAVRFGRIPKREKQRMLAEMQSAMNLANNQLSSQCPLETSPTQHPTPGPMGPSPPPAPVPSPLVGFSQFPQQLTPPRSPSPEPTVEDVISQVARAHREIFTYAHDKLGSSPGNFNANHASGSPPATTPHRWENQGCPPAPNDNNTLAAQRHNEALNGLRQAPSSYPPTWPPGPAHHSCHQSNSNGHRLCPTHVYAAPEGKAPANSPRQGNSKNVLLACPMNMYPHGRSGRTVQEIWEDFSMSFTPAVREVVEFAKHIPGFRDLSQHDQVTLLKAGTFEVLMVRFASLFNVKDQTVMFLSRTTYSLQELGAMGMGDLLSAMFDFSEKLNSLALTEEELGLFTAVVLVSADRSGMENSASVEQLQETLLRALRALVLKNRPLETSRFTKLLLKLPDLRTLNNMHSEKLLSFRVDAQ
Procedure: (§1) HEK293T cells were defrosted and maintained in DMEM supplemented with 10% FCS and 1% P/S at 37° C. and 5% CO2. Cells were plated in a 24-well plate (7·10^4 cells/well in 0.5 mL of DMEM+10% FCS). 24 h after seeding, cells were transfected with 100 ng of Bmal-luc, 10 ng of pRL-CMV Renilla as an internal control and 10 ng of REV-ERBα or the empty vector pcDNA3 as a control. All conditions were equalled to a total of 400 ng of DNA by using BSM. In order to prepare transfection samples, calculated amounts of DNA needed for each condition were prepared in Opti-MEM and Fugene was added in a 5:2 Fugene:DNA ratio. Mixtures were vortexed to assure homogeneity and left to incubate for 15 min at rt. Afterwards, each DNA mix was transferred into the 24-well plate containing the pre-seeded cells, with each condition repeated by triplicate. 5 h after transfection, cells were treated with compounds 2-12, AG1-AG5 or DMSO as vehicle. Solution of the compounds in DMEM were prepared at a double concentration than the final desired one, and 0.5 mL of these solutions were added to each well. 24 h after transfection, cells were lysed and luciferase activity was measured using Dual-Luciferase Reporter Assay System E2920 (Promega). To perform the experiment, cells were lysed by adding 50 μL of passive lysis buffer (PLB) (1:5 dilution) to each well and gently stirring for 30 min. Each cell lysate was transferred to a 96-well plate. 50 μL of Dual-Glo reagent were dispensed into each well, tapped gently to mix and incubated for 10 min. Luminescence of firefly luciferase was measured using a Tecan VICTOR Light Luminescent counter equipment. Then, 50 μL of Stop&Glo reagent were dispensed to quench firefly activity and activate Renilla luciferase, incubated for 10 min and measured. Firefly activity was normalized to Renilla luciferase activity. Results were analysed using Welch's corrected parametric t-test.
(§2) The method of Example 2 was repeated using Compounds 70 to 72 (generated as described in Example 1). Compounds 4, 7 and 11 (tested in Example 2) were used as a positive control for REV-ERB inhibitory activity, agonist compound AG2 (also tested in Example 2) and DMSO were also tested as comparators.
The method of Example 2 was repeated using Compounds 64 to 66, 69 and 70 to 73 (generated as described in Example 1). Once again, Compounds 4, 7 and 11 (tested in Example 2) were used as a positive control for REV-ERB inhibitory activity, agonist compound AG2 (also tested in Example 2) and DMSO were also tested as comparators.
as §2, with “16” for “70”, “19, 27, 28 and 44” for “72”, “1). Once again,” for “1).”

REV-ERBβ = target: T2, REV-ERBβ (Homo sapiens, UniProt Q14995); assay: Dual-luciferase Bmal-luc reporter assay in HEK293T cells transfected with REV-ERBβ; assay type: cell-based; settings: 10 μM
T2 construct: expressed in transfected cells; host or cells: HEK293T
T2 sequence (Q14995 1-579): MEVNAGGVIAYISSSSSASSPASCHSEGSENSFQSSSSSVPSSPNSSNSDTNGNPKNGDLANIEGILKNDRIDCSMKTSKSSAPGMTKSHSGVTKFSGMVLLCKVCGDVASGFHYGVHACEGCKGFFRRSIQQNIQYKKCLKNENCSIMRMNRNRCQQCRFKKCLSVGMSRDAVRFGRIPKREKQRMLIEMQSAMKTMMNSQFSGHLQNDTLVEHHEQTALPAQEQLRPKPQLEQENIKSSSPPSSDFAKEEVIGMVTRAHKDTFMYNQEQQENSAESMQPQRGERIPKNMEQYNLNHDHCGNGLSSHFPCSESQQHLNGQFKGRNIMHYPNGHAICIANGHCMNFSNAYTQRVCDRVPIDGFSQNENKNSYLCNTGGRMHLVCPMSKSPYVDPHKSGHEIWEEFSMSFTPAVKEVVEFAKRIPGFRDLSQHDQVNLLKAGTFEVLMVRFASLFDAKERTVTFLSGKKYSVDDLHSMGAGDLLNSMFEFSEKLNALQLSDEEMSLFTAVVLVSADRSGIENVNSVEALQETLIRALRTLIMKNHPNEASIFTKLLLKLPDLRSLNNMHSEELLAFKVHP
Procedure: as §1
The method of Example 2 was repeated but with 10 ng of REV-ERBβ used in place of REV-ERBa. Compounds 4, 66, 69 and 73 were tested (generated as described in Example 1). Agonist compound AG2 and DMSO were also tested as comparators.
The method of Example 5 was repeated using Compounds 18 and 19 (generated as described in Example 1). Agonist compound AG5 and DMSO were also tested as comparators.

NK cells = settings: previously shown by the inventors; cited from earlier work
E4bp4 = settings: previously shown by the inventors; cited from earlier work
[1] = FIG. 3, three independent experiments in triplicate, comparison with SR8278
[2] = FIG. 4, two independent experiments in triplicate, comparison with SR8278
[3] = FIG. 6, three independent experiments in triplicate
[4] = FIG. 8, two independent experiments in triplicate

Row | Structure (SMILES) | Effect on REV-ERBα activity (Bmal-luc luciferase expression) (REV-ERBα; [2]) | Effect on REV-ERBβ activity (Bmal-luc luciferase expression) (REV-ERBβ; [3]) | Effect on REV-ERBβ activity (Bmal-luc luciferase expression) (REV-ERBβ; [4]) | Effect on REV-ERBα activity (Bmal-luc luciferase expression) (REV-ERBα; [1]) | further results
1 | CCOC(=O)C1Cc2ccccc2CN1C(=O)OCC (racemic) [Compound 4, Diethyl 3,4-dihydroisoquinoline-2,3(1H)-dicarboxylate] | significant antagonistic activity | significant antagonistic activity | – | significant increase in luciferase expression compared with SR8278; also recorded: significant antagonistic activity | Effect on REV-ERBα activity (Bmal-luc luciferase expression) (REV-ERBα; FIG. 7, three independent experiments in triplicate): significant antagonistic activity
2 | CCOC(=O)C1Cc2ccccc2CN1S(=O)(=O)c1cccc2ccccc12 (stereo not shown) [AG2] | agonist | agonist | agonist | agonists | Effect on REV-ERBα activity (Bmal-luc luciferase expression) (REV-ERBα; FIG. 5, three independent experiments in triplicate): agonist
3 | CCOC(=O)C1Cc2ccccc2CN1C(=O)c1ccc(SC)s1 (stereo not shown) [SR8278] | – | – | – | – | NK cell production (NK cells): increases NK cell production; E4bp4 expression (E4bp4): increases E4bp4 expression

Further lines, with some results ahead:

Row | Effect on REV-ERBα activity (Bmal-luc luciferase expression) (REV-ERBα; [2]) | Effect on REV-ERBβ activity (Bmal-luc luciferase expression) (REV-ERBβ; [3]) | Effect on REV-ERBβ activity (Bmal-luc luciferase expression) (REV-ERBβ; [4]) | Structure (SMILES) | Effect on REV-ERBα activity (Bmal-luc luciferase expression) (REV-ERBα; [1]) | further results
4 | – | – | antagonistic activity | CCOC(=O)C1Cc2ccccc2CN1C(=O)c1ccnn1C (racemic) [Compound 18] | – | –
5 | – | – | antagonistic activity | CCOC(=O)C1Cc2ccccc2CN1C(=O)c1ccn(C)n1 (racemic) [Compound 19] | – | –
